Assays:
Type in all cases: functional, Homo sapiens
TERT-RPE1 = assay: (§1) Here: values are normalized to the negative (DMSO; defined as 0% autophagy induction) and positive (250nM Torin1; mTOR inhibitor; defined as maximal inducer of autophagy = 100%) control compounds and represented as % of autophagy induction. […] The impact of autophagy induction on cells is complex and depends on the affected target. As such, the magnitude of a phenotype may not be equally mirrored in the %-value of autophagy induction and vice versa. The dynamics of the induction may indicate the mode of activation: e.g. activation via phosphorylation or a signaling cascade may occur fast, while activation via transcription factors may take considerably longer. […] Of note, treatment concentrations may be sub-optimal for specific compounds, leading to false negative annotations.; conditions: Culturing Media DMEM/F12 (1:1), 1 % Penicillin/Streptomycin, 10% Fetal bovin serum Add-On: No, Screening Media Control DMEM/F12 (1:1), Screening Media Samples DMEM/F12 (1:1)
U2OS [1] = assay: as §1; conditions: Culturing Media DMEM, 1 % Penicillin/Streptomycin, 10% Fetal bovin serum Add-On: No, Screening Media Control DMEM, Screening Media Samples DMEM
U2OS [2] = assay: as §1; conditions: Culturing Media DMEM, 1 % Penicillin/Streptomycin, 10% Fetal bovin serum Add-On: No, Screening Media Control DMEM, Screening Media Samples DMEM; remark: listed apart in the source
[3] = Compound Concentration 0.5 uM, Timepoint 12 hours
[4] = Compound Concentration 0.5 uM, Timepoint 24 hours
[5] = Compound Concentration 0.5 uM, Timepoint 36 hours
[6] = Compound Concentration 0.5 uM, Timepoint 60 hours
[7] = Compound Concentration 2 uM, Timepoint 12 hours
[8] = Compound Concentration 2 uM, Timepoint 24 hours
[9] = Compound Concentration 2 uM, Timepoint 36 hours
[10] = Compound Concentration 2 uM, Timepoint 60 hours
[11] = Compound Concentration 10 uM, Timepoint 12 hours
[12] = Compound Concentration 10 uM, Timepoint 24 hours
[13] = Compound Concentration 10 uM, Timepoint 36 hours
[14] = Compound Concentration 10 uM, Timepoint 60 hours

## N#Cc1c[nH]c2c(C(=O)N3CCN(CCc4ccc(F)cc4)CC3)cccc12 [PRUVANSERIN]
TERT-RPE1; [3]
  autophagy induction: -0.9197%
TERT-RPE1; [4]
  autophagy induction: -7.874%
TERT-RPE1; [5]
  autophagy induction: -10.0141%
TERT-RPE1; [6]
  autophagy induction: -14.8375%
TERT-RPE1; [7]
  autophagy induction: -6.1985%
TERT-RPE1; [8]
  autophagy induction: -7.924%
TERT-RPE1; [9]
  autophagy induction: -9.7251%
TERT-RPE1; [10]
  autophagy induction: -15.807%
TERT-RPE1; [11]
  autophagy induction: -0.3174%
TERT-RPE1; [12]
  autophagy induction: -4.163%
TERT-RPE1; [13]
  autophagy induction: -3.571%
TERT-RPE1; [14]
  autophagy induction: -3.5258%
U2OS [1]; [3]
  autophagy induction: -2.928%
U2OS [1]; [4]
  autophagy induction: -3.235%
U2OS [1]; [5]
  autophagy induction: -1.344%
U2OS [1]; [6]
  autophagy induction: -1.7078%
U2OS [1]; [7]
  autophagy induction: -0.5957%
U2OS [1]; [8]
  autophagy induction: -2.183%
U2OS [1]; [9]
  autophagy induction: -3.588%
U2OS [1]; [10]
  autophagy induction: -2.524%
U2OS [1]; [11]
  autophagy induction: 4.878%
U2OS [1]; [12]
  autophagy induction: -0.06233%
U2OS [1]; [13]
  autophagy induction: -0.9102%
U2OS [1]; [14]
  autophagy induction: -2.945%
U2OS [2]; [3]
  autophagy induction: -6.178%
U2OS [2]; [4]
  autophagy induction: -8.725%
U2OS [2]; [5]
  autophagy induction: -11.774%
U2OS [2]; [6]
  autophagy induction: -11.1897%
U2OS [2]; [7]
  autophagy induction: -0.7991%
U2OS [2]; [8]
  autophagy induction: -1.585%
U2OS [2]; [9]
  autophagy induction: -5.754%
U2OS [2]; [10]
  autophagy induction: -9.463%
U2OS [2]; [11]
  autophagy induction: -2.951%
U2OS [2]; [12]
  autophagy induction: 1.579%
U2OS [2]; [13]
  autophagy induction: -6.9473%
U2OS [2]; [14]
  autophagy induction: -6.12%
